Assay results as given in patent US5912231A, “Substitution analogues of magainin peptides” (priority 1994, dated 1999).
Like-named read-outs stand apart in the source and are kept apart here. Residues, ends and D or L forms follow the SMILES beside them.

Columns and labels:
Format in all cases: cell-based
[1] = system: Escherichia coli; details: 6 h
Method: (§1) Antimicrobial assays (for Examples 3 to 27) were carried out in 96-well tissue culture plates. Each well was incubated with a given microorganism (Escherichia coli, Staphylococcus epidermidis, Staphylococcus aureus, or Pseudomonas aeruginosa) suspended in LB medium (Examples 3-17), or TSB medium (Examples 18-27). Upon the addition of Magainin I or its substitution analogues, (dissolved in 1×PBS, pH 7.0) each well contained a final cell density of 1.0×10^6 colony forming units (CFU)/ml. The final peptide concentrations used were 100 μg/ml., 75.0 μg/ml, 50.0 μg/ml, 25 μg/ml, 12.5 μg/ml, 10 μg/ml, 5μg/ml, 2.5 μg/ml, and 1.25 μg/ml.
(§2) Addition of peptides to the wells was defined as time zero. At six hours, the plates were placed in a Titertek Multiskan apparatus and the O.D.620 determined. The plates as well as the initial innoculum were incubated at 37° C.
(§3) Five wells per plate contained media alone, while five others contained medium plus cells. These controls were used to eliminate the possibility of media contamination while providing a measure of uninhibited growth of the microorganisms.
(§4) The degree of peptide activity was determined by comparing the substitution analogues with uninhibited growth of the control cells over a six-hour period.

[2] = system: Staphylococcus aureus; details: at 50 μg/ml peptide; LB medium; 6 h
Method: as §1, §2, §3, §4

[3] = system: Staphylococcus epidermidis; details: 6 h
Method: as §1, §2, §3, §4

[4] = system: Pseudomonas aeruginosa; details: TSB medium, 6 h
Method: as §1, §2, §3, §4

[5] = at 10 μg/ml peptide, TSB medium
[6] = at 25 μg/ml peptide, TSB medium

GIGKFILHAAGKFGKAFVGIMKS (GIGKFLHAAGKFGKAFVGIMKS) [Magainin I, residue 19 deleted, residue 8 alanine]
100%: % effective growth inhibition of E. coli ([1]; at 2.5 μg/ml peptide, LB medium) | % effective growth inhibition of S. aureus [2] | % effective growth inhibition of S. epidermidis ([3]; at 25 μg/ml peptide, LB medium)

CC[C@H](C)[C@H](NC(=O)CN)C(=O)NCC(=O)N[C@@H](CCCCN)C(=O)N[C@@H](CCCCN)C(=O)N[C@@H](CC(C)C)C(=O)N[C@@H](Cc1c[nH]cn1)C(=O)N[C@@H](CCCCN)C(=O)N[C@@H](CCCCN)C(=O)NCC(=O)N[C@@H](CCCCN)C(=O)N[C@@H](Cc1ccccc1)C(=O)NCC(=O)N[C@@H](CCCCN)C(=O)N[C@@H](Cc1ccccc1)C(=O)N[C@@H](CCCCN)C(=O)NCC(=O)N[C@@H](C)C(=O)N[C@H](C(=O)N[C@@H](CC(C)C)C(=O)N[C@@H](CCCCN)C(=O)N[C@@H](C)C(=O)O)[C@@H](C)CC [Example 8] (H-GIGKKLHKKGKFGKFKGAILKA-OH)
100%: % effective growth inhibition of E. coli ([1]; at 5 μg/ml peptide, LB medium) | % effective growth inhibition of E. coli ([1]; at 5 μg/ml peptide, TSB medium) | % effective growth inhibition of E. coli [1, 5] | % effective growth inhibition of E. coli ([1]; at 25 μg/ml peptide, LB medium) | % effective growth inhibition of E. coli [1, 6] | % effective growth inhibition of E. coli ([1]; at 75 μg/ml peptide, LB medium) | % effective growth inhibition of E. coli ([1]; at 100 μg/ml peptide, LB medium) | % effective growth inhibition of P. aeruginosa ([4]; at 5 μg/ml peptide) | % effective growth inhibition of P. aeruginosa ([4]; at 10 μg/ml peptide) | % effective growth inhibition of P. aeruginosa ([4]; at 25 μg/ml peptide) | % effective growth inhibition of S. epidermidis ([3]; at 5 μg/ml peptide, TSB medium) | % effective growth inhibition of S. epidermidis [3, 5] | % effective growth inhibition of S. epidermidis [3, 6] | % effective growth inhibition of S. epidermidis ([3]; at 50 μg/ml peptide, LB medium) | % effective growth inhibition of S. epidermidis ([3]; at 75 μg/ml peptide, LB medium)
